Reference: US9567569B2, “Methods of culturing and expanding mesenchymal stem cells” (Gamida Cell Ltd., priority 2012, dated 2017)
“Also recorded” adds a separate entry of the source.

Key:
[1] = test system: Human bone marrow derived mesenchymal cells; test: FACS measurement of CD45, CD105 and VCAM1/CD106 on cultured mesenchymal stem cells; type: cell-based; settings: with vs without SR1 under identical conditions
Description: (§1) Isolation—Human bone marrow derived mesenchymal cells were isolated based on their plastic adherence potential in expansion medium containing: High glucose DMEM and 10% Fetal Bovine Serum (FBS, Hyclone, Logan, Utah, USA), 0.05 mg/ml Gentamicin (Sigma) and 2 mM L-glutamine (Biological Industries, Israel). Cells were allowed to adhere for 3-4 days and non-adherent cells were washed out with medium changes. Expansion—Mesenchymal stem cells were isolated using plastic adherence method, as described above and cultured for several passages in a medium which comprises fetal bovine serum in the presence or absence of SR1 for three passages (StemRegenin1, BioVision cat#1967-1). Measurement of CD45, CD105 and VCAM1/CD106: following Trypsin treatment the cells were analyzed for CD45, CD105 or CD106 expression in FACS using anti-human CD45 FITC, CD105 PE or CD106 APC antibodies.

CD34+ cells = settings: cited from earlier work
[2] = test system: Human bone marrow derived mesenchymal cells; test: Expansion of mesenchymal stem cells in culture in the presence or absence of SR1 (cell counts, doubling time); type: cell-based
Description: as §1, with “Three concentrations 250, 1000 and 2500 nM” for “Measurement”, “SR1 were examined. At about 80% confluence, adherent” for “CD45, CD105 and VCAM1/CD106: following Trypsin treatment the”, “collected following trypsin treatment, counted, characterized and re-seeded at a concentration of 1×10^3 cells/cm^2.” for “analyzed for CD45, CD105 or CD106 expression in FACS using anti-human CD45 FITC, CD105 PE or CD106 APC antibodies.”

[3] = target: T1, aryl hydrocarbon receptor (AhR) (Homo sapiens, UniProt P35869); settings: cited from earlier work
T1 sequence (P35869 11-848): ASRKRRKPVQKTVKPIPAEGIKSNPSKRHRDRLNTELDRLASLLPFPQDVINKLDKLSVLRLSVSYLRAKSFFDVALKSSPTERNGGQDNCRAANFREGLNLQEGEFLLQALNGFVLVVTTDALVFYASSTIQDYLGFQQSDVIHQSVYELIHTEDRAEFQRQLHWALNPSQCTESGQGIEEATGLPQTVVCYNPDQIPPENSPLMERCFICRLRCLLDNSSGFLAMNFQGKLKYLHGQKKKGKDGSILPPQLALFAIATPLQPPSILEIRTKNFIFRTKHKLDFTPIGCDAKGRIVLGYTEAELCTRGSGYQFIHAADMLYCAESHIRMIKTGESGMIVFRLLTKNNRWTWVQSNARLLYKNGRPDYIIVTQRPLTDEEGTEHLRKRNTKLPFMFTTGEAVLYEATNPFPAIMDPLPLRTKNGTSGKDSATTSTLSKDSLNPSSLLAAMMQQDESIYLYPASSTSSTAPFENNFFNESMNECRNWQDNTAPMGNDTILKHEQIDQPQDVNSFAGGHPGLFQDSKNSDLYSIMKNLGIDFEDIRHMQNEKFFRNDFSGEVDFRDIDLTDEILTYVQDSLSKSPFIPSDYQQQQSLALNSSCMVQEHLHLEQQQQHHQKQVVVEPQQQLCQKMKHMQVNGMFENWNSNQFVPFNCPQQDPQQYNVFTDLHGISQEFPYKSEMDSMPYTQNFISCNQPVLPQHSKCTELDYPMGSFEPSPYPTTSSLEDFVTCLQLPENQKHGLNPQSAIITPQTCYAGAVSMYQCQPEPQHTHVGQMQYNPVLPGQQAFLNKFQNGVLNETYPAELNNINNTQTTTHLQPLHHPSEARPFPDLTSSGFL

CC(C)n1cnc2c(NCCc3ccc(O)cc3)nc(-c3csc4ccccc34)nc21 [SR1, 4-(2-(2-(benzo[b]thiophen-3-yl)-9-isopropyl-9H-purin-6-ylamino)ethyl)phenol]
CD45 and CD105 levels (percentage of CD105+CD45- cells) ([1]; FIG. 4): same CD45 and CD105 levels
VCAM1/CD106 expression (percentage of CD106+ cells) ([1]; FIG. 5): increase the fraction of CD106+ cells; also recorded: express more VCAM1/CD106 adhesion molecule
ex vivo expansion of CD34+ cells (CD34+ cells): promote the ex vivo expansion of CD34+ cells
effect on the proliferation of mesenchymal stem cells (cumulative count) ([2]; SR1 250, 1000 and 2500 nM vs control, three passages, FIGS. 1-3): proliferate more rapidly; also recorded: positive effect
most effective concentration for proliferation of mesenchymal stem cells ([2]; of 250, 1000 and 2500 nM examined): 250 nM
doubling time of mesenchymal stem cells ([2]; passage 2, with vs without SR1, FIG. 3): decreased
time for cultures to reach confluence ([2]; with vs without SR1): substantially shorter period of time
action on the aryl hydrocarbon receptor [3]: antagonizing
